Results on four substances are retold here after patent US20140072557A1, “MEDICINAL AGENT FOR SUPPRESSING MALIGNANT TUMOR METASTASIS” (priority 2011, published 2014).

Bridges are numbered along the chain shown (N, C = ends). Where no end group is shown, it is not given here.

Assay [1] relates to A549 cells. Briefly: EMT induced by TGF-β1 in A549 cells (morphology, quantitative RT-PCR). It is filed as cell-based. To be noted: final concentration 1 μM, A549 cells. The method, then:
Using a 6-well dish, the A549 cells were cultured at 1×10^5 cells/well, and the culture medium was replaced with DMEM culture medium free from FBS the next day. After 24 hours of culture, the cells were used in the following experiment.
An ANP group (ANP solution was added (final concentration: 1 μM)) and a control group (the same amount of physiological saline was added) were prepared, and after 2 hours from the addition, TGF-β1 was added so that the final concentration would be 0.125, 0.25, 0.5, 1.0, and 2.0 ng/mL. After 24 hours had passed, the morphological change in the cells was observed under a microscope and photographed (FIG. 3).
Then, total RNA was collected using TRIZOL total RNA isolation reagent (made by Invitrogen), cDNA was synthesized using reverse transcriptase, and the mRNA levels of E-cadherin, N-cadherin, VEGF-A, PDGF-B, TNF-α, and IL-6 were measured by quantitative RT-PCR. It is known that in EMT, the expression of E-cadherin decreases while the expression of N-cadherin increases. The expression ratio of N-cadherin/E-cadherin is considered to be useful as an indicator of the degree of EMT.

The target in assay [2] is T1, natriuretic peptide receptor GC-B (Homo sapiens, UniProt P20594).
T1 sequence (P20594 23-1047): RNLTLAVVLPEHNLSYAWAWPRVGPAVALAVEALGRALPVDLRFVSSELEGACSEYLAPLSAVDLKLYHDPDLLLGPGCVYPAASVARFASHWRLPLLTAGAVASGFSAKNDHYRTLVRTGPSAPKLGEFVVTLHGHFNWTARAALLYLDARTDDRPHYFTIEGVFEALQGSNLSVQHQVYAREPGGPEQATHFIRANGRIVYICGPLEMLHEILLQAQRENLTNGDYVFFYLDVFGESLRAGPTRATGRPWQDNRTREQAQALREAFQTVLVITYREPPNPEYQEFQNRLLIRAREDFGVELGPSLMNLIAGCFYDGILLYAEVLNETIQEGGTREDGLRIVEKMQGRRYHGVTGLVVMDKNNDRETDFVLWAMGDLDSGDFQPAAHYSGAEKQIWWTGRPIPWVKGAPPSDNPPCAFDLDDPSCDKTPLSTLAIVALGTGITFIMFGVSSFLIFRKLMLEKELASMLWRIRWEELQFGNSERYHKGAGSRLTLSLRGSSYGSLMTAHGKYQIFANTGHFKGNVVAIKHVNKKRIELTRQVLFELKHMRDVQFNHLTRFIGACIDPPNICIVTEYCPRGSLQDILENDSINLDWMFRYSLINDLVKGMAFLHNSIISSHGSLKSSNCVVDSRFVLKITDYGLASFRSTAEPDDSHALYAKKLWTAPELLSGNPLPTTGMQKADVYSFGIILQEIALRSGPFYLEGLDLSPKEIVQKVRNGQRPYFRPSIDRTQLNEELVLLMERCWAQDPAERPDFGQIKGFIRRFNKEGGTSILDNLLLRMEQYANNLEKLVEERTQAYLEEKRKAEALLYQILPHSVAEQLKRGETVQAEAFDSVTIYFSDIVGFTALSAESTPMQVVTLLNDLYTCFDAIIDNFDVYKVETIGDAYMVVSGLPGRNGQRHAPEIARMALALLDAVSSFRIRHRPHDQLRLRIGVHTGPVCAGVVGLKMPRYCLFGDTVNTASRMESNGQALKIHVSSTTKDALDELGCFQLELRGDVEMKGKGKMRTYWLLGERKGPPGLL
The conditions noted are these: Furuya et al. 1992; cited from earlier work.

Assay [3] relates to A549 cells. Briefly: Intracellular cGMP level in A549 cells on natriuretic peptide stimulus. It counts as cell-based. To be noted: 1×10^−11 M to 1×10^−6 M, 10 minutes. The method, then:
The A549 cells were cultured in a 24-well dish at 4×10^4 cells/well, and the culture medium was replaced with DMEM culture medium free from FCS the next day. To the culture medium, solutions of hANP, hBNP, and hCNP (final concentration: ten-fold serial dilution from 1×10^−11 M to 1×10^−6 M, the same amount of physiological saline was used as a control) were separately added. After 10 minutes passed, 400 μL of cooled 70% ethanol (containing 0.1 N hydrochloric acid) was added, and ultrasonication was performed for a short time. The treated solution was lyophilized, and the cGMP level was measured using Cyclic GMP Assay kit (made by Yamasa Corp.).

The next assay deals with mouse melanoma B16-F10. Briefly: Mouse tail vein injection metastasis test, mouse melanoma B16-F10. It is filed as in vivo, mice. The conditions noted are these: 2.5 μg/kg/min by subcutaneous osmotic pump, 2 weeks. The method, then:
6-week-old male […] mice were used (purchased from Japan SLC, Inc.). Mouse melanoma B16-F10 was purchased from ATCC, and cultured in DMEM (Life Technologies Corp.) containing 10% FCS under 5% CO2 at 37° C. The cells in a subconfluent state were treated with EDTA-trypsin, centrifuged, and then suspended in serum free DMEM so as to be 5×10^6 cells/mL. The melanoma cell suspension (100 μL/mouse, 5×10^5 cells) was injected to the tail vein of the mice. The osmotic pumps used were MODEL2002 (for 14-day administration) made by ALZET (Cupertino, Calif,.).
Mice into which an osmotic pump containing 0.9% physiological saline was subcutaneously implanted in the back were assigned to the control group. Similarly, an osmotic pump containing hANP prepared for administration at 0.5 μg/kg/min was subcutaneously implanted into each mouse in the ANP group, an osmotic pump containing mouse BNP prepared for administration at 0.5 μg/kg/min was subcutaneously implanted into each mouse in the BNP group, and an osmotic pump containing hCNP-22 prepared for administration at 2.5 μg/kg/min was subcutaneously implanted into each mouse in the CNP group. To the mice in the sildenafil group, sildenafil citrate at a dosage of 20 mg/kg was intraperitoneally administered once daily. […]

As to “LKL-ANP: a mutant in which the amino acids at positions 10 to 12 of hANP are replaced with LKL (SLRRSSCFGLKLDRIGAQSGLGCNSFRY; ends and bridges not checked; cysteine pairing not given here; UniProt P01160 124-151, looked up, variant G10L R11K M12L)”, in the assay with A549 cells [1], the “ratio of suppression of EMT induced by TGF-β in terms of E-cad/Ncad” value was 52.9%. Turning to “hCNP6-22: peptide consisting of amino acids from position 6 to position 22 of SEQ ID NO: 7 (ring structure only) (CFGLKLDRIGSMSGLGC; disulfide 1-17 (inferred); listed as Homo sapiens)”, in assay [2], the “GC-B agonist activity compared with hCNP-22” value is “comparable to that of hCNP-22”.

For “hCNP: 22-amino acid CNP-22 of human origin, GLSKGCFGLK LDRIGSMSGL GC (SEQ ID NO: 7), GC-B agonist (GLSKGCFGLKLDRIGSMSGLGC; listed as Homo sapiens)”, the “intracellular cGMP level” value in the assay with A549 cells [3] is given as “did not show such increase”. In addition, the “lung metastasis of melanoma (number of nodules)” value in the assay on mouse melanoma B16-F10 is “significantly suppressed”. As to nesiritide [hBNP], in the assay on A549 cells [3], the “intracellular cGMP level” value was “increased the intracellular cGMP level of the A549 cells in a concentration-dependent manner”.
